The text below walks through data of ChEMBL document CHEMBL4020846 (J Med Chem, 2018).

Activity calls are given as the source filed them. No cut-off for these calls is given here. Bounds are passed on as bounds.

In series [1] the target is T1, Nucleotide-binding oligomerization domain-containing protein 1 (Homo sapiens) (UniProt Q9Y239).
T1 sequence (whole entry): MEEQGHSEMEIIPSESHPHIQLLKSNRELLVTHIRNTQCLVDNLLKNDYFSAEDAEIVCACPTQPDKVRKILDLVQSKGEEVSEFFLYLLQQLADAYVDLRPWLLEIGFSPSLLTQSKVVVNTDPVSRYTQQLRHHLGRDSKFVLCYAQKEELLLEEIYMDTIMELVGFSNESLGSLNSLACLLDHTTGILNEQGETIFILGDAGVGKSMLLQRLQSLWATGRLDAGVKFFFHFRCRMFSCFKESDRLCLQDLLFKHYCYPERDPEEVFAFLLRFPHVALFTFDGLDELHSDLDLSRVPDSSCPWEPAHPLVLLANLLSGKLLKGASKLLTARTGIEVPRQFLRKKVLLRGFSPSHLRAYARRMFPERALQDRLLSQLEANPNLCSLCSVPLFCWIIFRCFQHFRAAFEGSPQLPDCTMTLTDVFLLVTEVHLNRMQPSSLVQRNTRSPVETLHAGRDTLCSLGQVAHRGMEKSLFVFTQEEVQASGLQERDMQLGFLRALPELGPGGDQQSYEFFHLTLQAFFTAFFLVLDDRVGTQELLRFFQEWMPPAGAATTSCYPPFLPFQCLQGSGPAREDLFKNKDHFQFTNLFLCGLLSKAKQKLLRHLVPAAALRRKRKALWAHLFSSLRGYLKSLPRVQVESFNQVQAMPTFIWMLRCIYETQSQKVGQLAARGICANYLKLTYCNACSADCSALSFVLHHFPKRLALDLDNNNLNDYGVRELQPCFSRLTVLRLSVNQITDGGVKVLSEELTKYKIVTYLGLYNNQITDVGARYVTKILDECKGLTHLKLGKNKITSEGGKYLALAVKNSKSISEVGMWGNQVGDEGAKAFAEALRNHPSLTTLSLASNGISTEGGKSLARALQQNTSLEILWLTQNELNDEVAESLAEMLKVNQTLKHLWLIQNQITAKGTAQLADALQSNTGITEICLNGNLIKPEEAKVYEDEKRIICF
Briefly: Agonist activity at human NOD1 expressed in HEK-Blue cells assessed as induction of NF-kB transcriptional activity at 20 uM after 18 hrs by SEAP reporter gene assay. The format is cell-based. A general note: A reporter such as luciferase makes a cellular process visible.

The target of series [2] is T2, Nucleotide-binding oligomerization domain-containing protein 2 (Homo sapiens, UniProt Q9HC29). Kind of series: Agonist activity at human NOD2 expressed in HEK-Blue cells assessed as induction of NF-kB transcriptional activity at 2 uM after 18 hrs by SEAP reporter gene assay relative to control. The format is cell-based.
The target of series [3] is T2, Nucleotide-binding oligomerization domain-containing protein 2. Briefly: Agonist activity at human NOD2 expressed in HEK-Blue cells assessed as induction of NF-kB transcriptional activity at 20 uM after 18 hrs by SEAP reporter gene assay. In kind it is cell-based.
Series [4] in a line: Cytotoxicity against HEK-Blue cells over-expressing NOD2 assessed as residual metabolic activity at 20 uM after 18 hrs by CellTiter 96 aqueous one solution cell proliferation assay relative to control. In kind it is ADME, cell-based. Particulars: human, read-out: Activity.
Series [5] addresses T2, Nucleotide-binding oligomerization domain-containing protein 2. Kind of series: Agonist activity at human NOD2 expressed in HEK-Blue cells assessed as induction of NF-kB transcriptional activity after 18 hrs by SEAP reporter gene assay. The format is cell-based.
Series [6] has the same target. Briefly: Agonist activity at human NOD2 expressed in HEK-Blue cells assessed as induction of NF-kB transcriptional activity at 2 uM after 18 hrs in presence of NOD2 antagonist GSK-669 by SEAP reporter gene assay. In kind it is cell-based.

T2 sequence (Q9HC29 whole entry, the tested form may be a part): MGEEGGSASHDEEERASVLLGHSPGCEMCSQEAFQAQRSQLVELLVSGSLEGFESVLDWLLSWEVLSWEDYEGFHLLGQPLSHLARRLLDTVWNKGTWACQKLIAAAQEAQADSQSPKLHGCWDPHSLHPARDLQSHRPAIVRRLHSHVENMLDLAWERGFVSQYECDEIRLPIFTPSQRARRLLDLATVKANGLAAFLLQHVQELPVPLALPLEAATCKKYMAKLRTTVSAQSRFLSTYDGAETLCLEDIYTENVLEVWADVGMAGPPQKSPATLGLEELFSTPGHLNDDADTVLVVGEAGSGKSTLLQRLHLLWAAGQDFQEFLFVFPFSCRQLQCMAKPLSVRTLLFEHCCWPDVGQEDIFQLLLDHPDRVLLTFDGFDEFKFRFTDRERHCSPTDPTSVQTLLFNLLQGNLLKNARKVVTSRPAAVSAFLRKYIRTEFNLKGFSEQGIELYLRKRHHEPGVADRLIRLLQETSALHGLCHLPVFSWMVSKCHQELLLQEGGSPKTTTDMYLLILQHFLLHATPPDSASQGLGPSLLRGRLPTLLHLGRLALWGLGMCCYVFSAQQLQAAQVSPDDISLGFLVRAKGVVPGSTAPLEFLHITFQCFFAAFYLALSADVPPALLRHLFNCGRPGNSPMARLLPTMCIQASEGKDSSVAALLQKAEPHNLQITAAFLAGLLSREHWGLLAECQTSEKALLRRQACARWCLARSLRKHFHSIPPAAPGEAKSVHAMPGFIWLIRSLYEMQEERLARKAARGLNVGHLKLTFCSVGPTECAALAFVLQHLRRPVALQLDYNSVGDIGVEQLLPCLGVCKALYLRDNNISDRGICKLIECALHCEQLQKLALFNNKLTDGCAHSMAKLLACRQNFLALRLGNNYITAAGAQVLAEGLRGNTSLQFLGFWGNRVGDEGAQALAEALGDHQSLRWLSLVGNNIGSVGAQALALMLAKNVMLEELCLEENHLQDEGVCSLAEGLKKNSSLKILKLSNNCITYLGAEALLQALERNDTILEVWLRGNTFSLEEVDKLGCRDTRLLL

Take `CCOC(=O)CC[C@@H](NC(=O)[C@H](C)NC(=O)CNC(=O)/C=C/c1ccc(O)c(OC)c1)C(=O)OCC`: the result in series [1] and in series [6] was inactive. For the same compound, in series [2], the fold change (FC) stood at 4.5. Also, the result in series [3] was Active. In series [4], the viability at 18 h, 20 µM was above 80%. Besides, the EC50 (usually the concentration giving half of the maximal effect) in series [5] worked out at 2.79 µM.

In the case of `CCOC(=O)CC[C@@H](NC(=O)[C@@H](NC(=O)CNC(=O)/C=C/c1ccccc1)C(C)C)C(=O)OCC`, the result in series [1] was inactive. For the same compound, the fold change (FC) in series [2] stood at 5.7. In addition, the result in series [3] was Active. The viability at 18 h, 20 µM in series [4] was above 80%. Also, in series [5], the Activity entry was “Dose-dependent effect” and the EC50 worked out at 0.223 µM. The outcome in series [6] was inactive.

On to `CCOC(=O)CC[C@@H](NC(=O)[C@H](Cc1ccccc1)NC(=O)CNC(=O)[C@@H]1C[C@H]1c1ccccc1)C(=O)OCC`, for which the result in series [1] and in series [6] was inactive. Further, in series [2], the fold change (FC) was 5.3. Moreover, in series [3], the result was Active. Also, the viability at 18 h, 20 µM in series [4] was above 80%. Also, the Activity entry in series [5] is “Dose-dependent effect”. In addition, the EC50 in series [5] was determined as 0.472 µM.

On to `CCOC(=O)CC[C@@H](NC(=O)[C@H](Cc1ccccc1)NC(=O)CNC(=O)/C=C/c1ccccc1)C(=O)OCC`, for which the outcome in series [1] was inactive. The fold change (FC) in series [2] stood at 5.3. In addition, the outcome in series [3] was Active. For the same compound, the viability at 18 h, 20 µM in series [4] was above 80%. In series [5], the Activity result was “Dose-dependent effect” and the EC50 came out at 0.388 µM. Further, in series [6], the result was inactive.

`CCOC(=O)CC[C@@H](NC(=O)[C@H](Cc1ccccc1)NC(=O)CNC(=O)C1CC1c1ccc(F)c(F)c1)C(=O)OCC` (stereo partly specified): in series [1], the outcome was inactive. Moreover, the fold change (FC) in series [2] was found to be 5.2. Moreover, in series [3], the outcome was Active. Further, in series [4], the viability at 18 h, 20 µM is above 80%. In addition, in series [5], the Activity result was “Dose-dependent effect” and the EC50 stood at 0.276 µM. Besides, the result in series [6] was inactive.

As to `CCOC(=O)CC[C@@H](NC(=O)[C@@H](NC(=O)CNC(=O)[C@@H]1C[C@H]1c1ccccc1)C(C)C)C(=O)OCC`, the result in series [1] and in series [6] was inactive. For the same compound, the fold change (FC) in series [2] came to 4.4. Also, the outcome in series [3] was Active. Besides, the viability at 18 h, 20 µM in series [4] was above 80%.

For the compound `COC(=O)c1ccc(C(=O)OC)c(NC(=O)[C@@H](NC(=O)CNC(=O)/C=C/c2ccc(O)c(OC)c2)C(C)C)c1`, the outcome in series [1] was inactive. Besides, the outcome in series [3] was Active. Besides, the viability at 18 h, 20 µM in series [4] was above 80%.

Take `CCOC(=O)CC[C@@H](NC(=O)[C@H](Cc1ccccc1)NC(=O)CNC(=O)c1cc2ccc(-c3ccccc3)cc2[nH]1)C(=O)OCC`: in series [1], the result was inactive. In addition, the fold change (FC) in series [2] came out at 4.8. In series [3], the outcome was Active. Also, the viability at 18 h, 20 µM in series [4] is above 80%. Further, in series [5], the Activity result is “Dose-dependent effect” and the EC50 turned out to be 0.777 µM. In addition, the outcome in series [6] was inactive.

On to `CCOC(=O)c1cc(O)ccc1NC(=O)[C@@H](NC(=O)CNC(=O)/C=C/c1ccc(O)c(OC)c1)C(C)C`, for which the result in series [1] was inactive. In series [3], the outcome was Active. In addition, in series [4], the viability at 18 h, 20 µM was above 80%.

As for `CCOC(=O)CC[C@@H](NC(=O)[C@@H](NC(=O)CNC(=O)/C=C/c1ccc(F)c(F)c1)C(C)C)C(=O)OCC`, the result in series [1] and in series [6] was inactive. Also, the fold change (FC) in series [2] is 5.6. Besides, in series [3], the result was Active. Moreover, the viability at 18 h, 20 µM in series [4] is above 80%. The EC50 in series [5] is 0.172 µM.

On to `CCOC(=O)[C@@H]1CCCC[C@@H]1NC(=O)[C@@H](NC(=O)CNC(=O)/C=C/c1ccc(O)c(OC)c1)C(C)C`, for which the result in series [1] was inactive. In addition, the outcome in series [3] was Active. In addition, the viability at 18 h, 20 µM in series [4] is above 80%.

`CCOC(=O)CC[C@@H](NC(=O)[C@H](Cc1ccccc1)NC(=O)CNC(=O)/C=C/c1ccc(F)c(F)c1)C(=O)OCC`: in series [1], the outcome was inactive. Also, in series [2], the fold change (FC) is 5.4. Also, in series [3], the result was Active. Besides, the viability at 18 h, 20 µM in series [4] was above 80%. In addition, in series [5], the Activity entry was “Dose-dependent effect” and the EC50 came to 0.172 µM. Further, in series [6], the result was inactive.

Consider `CCOC(=O)CC[C@@H](NC(=O)[C@H](Cc1ccccc1)NC(=O)CNC(=O)/C=C/c1ccc(O)c(OC)c1)C(=O)OCC`, for which the outcome in series [1] was inactive. In addition, the fold change (FC) in series [2] came out at 5.7. Further, the result in series [3] was Active. The viability at 18 h, 20 µM in series [4] was above 80%. In addition, in series [5], the Activity entry was “Dose-dependent effect” and the EC50 was 0.121 µM. The outcome in series [6] was inactive.

For `CCOC(=O)CC[C@@H](NC(=O)[C@@H](NC(=O)CNC(=O)C1CC1c1ccc(F)c(F)c1)C(C)C)C(=O)OCC` (stereo partly specified), the result in series [1] was inactive. Further, in series [2], the fold change (FC) worked out at 5.8. For the same compound, the outcome in series [3] was Active. The viability at 18 h, 20 µM in series [4] is above 80%. For the same compound, in series [5], the Activity result is “Dose-dependent effect” and the EC50 is 0.247 µM. Also, in series [6], the outcome was inactive.

As for `CCOC(=O)[C@H]1CCCC[C@@H]1NC(=O)[C@@H](NC(=O)CNC(=O)/C=C/c1ccc(O)c(OC)c1)C(C)C`, in series [1], the outcome was inactive. For the same compound, the outcome in series [3] was Active. Further, in series [4], the viability at 18 h, 20 µM was above 80%.

For `CCOC(=O)C1CCN(C(=O)[C@@H](NC(=O)CNC(=O)/C=C/c2ccc(O)c(OC)c2)C(C)C)CC1`, in series [1], the outcome was inactive. For the same compound, in series [3], the result was Active. The viability at 18 h, 20 µM in series [4] was above 80%.

Regarding `CCOC(=O)CC[C@@H](NC(=O)[C@@H](NC(=O)CNC(=O)c1cc2ccc(-c3ccccc3)cc2[nH]1)C(C)C)C(=O)OCC`, the result in series [1] and in series [6] was inactive. Further, the fold change (FC) in series [2] is 3.9. Further, the outcome in series [3] was Active. Besides, the viability at 18 h, 20 µM in series [4] is above 80%.

As for `COC(=O)c1cc(NC(=O)[C@@H](NC(=O)CNC(=O)/C=C/c2ccc(O)c(OC)c2)C(C)C)cc(C(=O)OC)c1`, in series [1], the result was inactive. The result in series [3] was Active. Further, the viability at 18 h, 20 µM in series [4] is above 80%.
